Read-outs that look alike come from different tables or passages of the source.
What was measured:
cCaSR [1] = target: T1, cCaSR (Felis catus, UniProt C7FF08)
T1 sequence (C7FF08 1-1081): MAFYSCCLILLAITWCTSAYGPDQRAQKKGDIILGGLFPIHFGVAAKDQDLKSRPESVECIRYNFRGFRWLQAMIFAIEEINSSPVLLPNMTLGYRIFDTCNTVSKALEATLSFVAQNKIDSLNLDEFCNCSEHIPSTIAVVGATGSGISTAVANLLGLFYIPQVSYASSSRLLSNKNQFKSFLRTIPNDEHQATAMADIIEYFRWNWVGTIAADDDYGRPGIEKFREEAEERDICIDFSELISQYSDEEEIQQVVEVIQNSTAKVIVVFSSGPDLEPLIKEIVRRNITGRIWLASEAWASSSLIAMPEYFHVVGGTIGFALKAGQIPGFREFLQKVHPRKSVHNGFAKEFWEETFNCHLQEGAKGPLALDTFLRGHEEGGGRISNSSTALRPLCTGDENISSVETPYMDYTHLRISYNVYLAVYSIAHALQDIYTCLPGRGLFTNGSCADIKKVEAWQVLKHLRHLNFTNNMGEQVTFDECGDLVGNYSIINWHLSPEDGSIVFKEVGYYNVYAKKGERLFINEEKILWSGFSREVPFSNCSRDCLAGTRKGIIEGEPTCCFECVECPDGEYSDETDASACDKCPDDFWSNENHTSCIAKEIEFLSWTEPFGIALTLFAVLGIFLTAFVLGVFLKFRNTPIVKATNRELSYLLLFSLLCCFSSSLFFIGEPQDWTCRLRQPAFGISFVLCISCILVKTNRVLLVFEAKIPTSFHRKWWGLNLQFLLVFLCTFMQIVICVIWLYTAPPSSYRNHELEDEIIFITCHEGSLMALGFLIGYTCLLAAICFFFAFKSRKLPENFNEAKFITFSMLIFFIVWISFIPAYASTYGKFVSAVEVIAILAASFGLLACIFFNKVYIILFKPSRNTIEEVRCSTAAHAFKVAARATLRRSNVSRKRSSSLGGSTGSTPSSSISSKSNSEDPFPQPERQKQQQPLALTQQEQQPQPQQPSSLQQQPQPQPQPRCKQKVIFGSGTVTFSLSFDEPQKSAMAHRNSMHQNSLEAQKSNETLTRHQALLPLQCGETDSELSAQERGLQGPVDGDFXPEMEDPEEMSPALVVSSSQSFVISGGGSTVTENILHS

cCaSR [2] = target: T1, cCaSR; experiment: cCaSR PAM luminescence assay, double injection with 0.5 mM CaCl2, HEK293/T-REx/natClytin-cCaSR
[3] = Supplementary Table I, agonist assay, dash = no activity
[4] = Supplementary Table I, PAM assay, dash = no activity
[5] = read-out: EC50 PAM, Supplementary Table I, positive allosteric modulator, presence of Ca2+
[6] = read-out: cCaSR activity, agonist assay, stable inducible cCaSR line, at least three wells
[7] = agonist assay, stable inducible cCaSR line, > 0.01 M = maximal response not reached
[8] = read-out: EC50 Ago, Supplementary Table I, agonist assay, > 0.01 M = maximal response not reached

| EC50 Ago (M) (cCaSR [1]; [3]) | EC50 PAM (M) (cCaSR [2]; [4]) | Compound | other results |
| --- | --- | --- | --- |
| - | - | NCCC[C@H](N)C(=O)O [L-Ornithine] |  |
| - |  | C[C@@H](NCc1cc2ccccc2[nH]1)c1cccc2ccccc12 [Calindol, reference compound] |  |
| - |  | Cc1ccc(C(C)NC(C)c2cc3ccccc3[nH]2)cc1C (centres unmarked) [Enamine Screening - Z1592615858] | EC50 (cCaSR [2]; [5]): 1.92 µM |
| - | - | CO[C@H]1[C@H](O)[C@@H](CO)OC(O)[C@@H]1O (stereo partly drawn) [3-O-Methyl-D-glucopyranose] |  |
| - | - | COc1c(C)cc(C(=O)CC#N)cc1C [3,5-Dimethyl-4-methoxybenzoylacetonitrile] |  |
|  | - | N[C@@H](CCC(=O)N[C@@H](CCC(=O)O)C(=O)N[C@@H](CCC(=O)O)C(=O)O)C(=O)O [γ-Glu-Glu-Glu] |  |
| - | - | O=C(O)[C@@H]1CNCCN1 [S-piperazine-2-carboxylic acid] |  |
| - | - | N[C@@H](Cc1c[nH]cn1)C(=O)O [L-Histidine] |  |
| - | - | C[C@](N)(CC(=O)O)C(=O)O [(S)-a-Methylaspartic acid, (S)-α-Methylaspartic acid] |  |
| - |  | CC(=O)N1C=Cc2ccccc2C1CC(=O)NC(C)c1cccc(Br)c1 (centres unmarked) [Enamine Screening - Z336933272] | EC50 (cCaSR [2]; [5]): 12.1 µM |
| - | - | N[C@H](CC(=O)O)C(=O)O [D-Aspartic Acid] |  |
| - | - | NCCCC[C@H](NC(=O)C[C@H](N)C(=O)O)C(=O)O [β-Asp-Lys] |  |
| - | - | NC(=O)C[C@H](N)C(=O)O [L-Asparagine] |  |
|  | - | Poly-L-ornithine |  |
|  |  | NCCNCCCNCCN [N,N'-Bis(2-aminoethyl)-1,3-propanediamine] | EC50 Ago (M) (cCaSR [1]): -; EC50 PAM (M) (cCaSR [2]): - |
| - |  | OCC(CNC1CCCOc2cc(Cl)ccc21)Cc1ccccn1 (centres unmarked) [Enamine Screening - Z1589915397] | EC50 (cCaSR [2]; [5]): 122 µM |
| - | - | N[C@@H](CCC(=O)N[C@@H](Cc1cnc[nH]1)C(=O)O)C(=O)O [γ-Glu-His] |  |
| - |  | C[C@@H](NCCCc1cccc(C(F)(F)F)c1)c1cccc2ccccc12 [Cinacalcet, reference compound] | EC50 (cCaSR [2]): 0.746 µM |
| - | - | NC[C@H]1O[C@H](O[C@H]2[C@H](O)[C@@H](O[C@H]3O[C@H](CO)[C@@H](O)[C@H](N)[C@H]3O)[C@H](N)C[C@@H]2N)[C@H](O)[C@@H](O)[C@@H]1O [Kanamycin solution, Kanamycin, reference compound] |  |
| - | - | CC1(C)N[C@H](C(=O)O)Cc2c1[nH]c1ccccc21 [S-1,1-dimethyl-2,3,4,9-tetrahydro-1H-pyrido[3,4-b]indole-3-carboxylic acid] |  |
| - | - | O=P(O)(O)C(Cl)(Cl)P(=O)(O)O [Dichloromethylenediphosphonic acid] |  |
| - | - | O=C(O)c1cc2c(cn1)[nH]c1ccccc12 [9H-pyrido[3,4-b]indole-3-carboxylic acid] |  |
|  | - | O=P(O)(O)CP(=O)(O)O [Methylenediphosphonic acid] | EC50 (cCaSR [1]; [7]): 1290 µM; EC50 (cCaSR [1]; [8]): 1290 µM |
|  | - | [Gd+3] [Gd^3+, Gadolinium ion Gd^3+] | EC50 (cCaSR [1]; [7]): 295 µM; EC50 (cCaSR [1]; [8]): 295 µM; EC50 (cCaSR [1]; [6]): < 1000 µM |

| EC50 Ago (M) (cCaSR [1]; [3]) | EC50 PAM (M) (cCaSR [2]; [4]) | Compound | other results |
| --- | --- | --- | --- |
| - |  | c1ccc(C2CCN(C3CCCc4ccccc43)C2)cc1 (centres unmarked) [Enamine Screening - Z1627256025] | EC50 (cCaSR [2]; [5]): 797 µM |
|  | - | [Sr+2] [Sr^2+] | EC50 (cCaSR [1]; [6]): > 10000 µM |
| - |  | COc1ccc(CCC(C)NC2CCOc3ccccc32)cc1O (centres unmarked) [Enamine Screening - Z1857407854] | EC50 (cCaSR [2]; [5]): 5.5 µM |
| - | - | C[C@H](N)C(=O)O [L-Alanine] |  |
| - | - | OC[C@H]1O[C@@](CO)(O[C@H]2O[C@H](CO)[C@@H](O)[C@H](O)[C@H]2O)[C@@H](O)[C@@H]1O [Sucrose] |  |
|  |  | CSCC[C@H](N)C(=O)O [L-Methionine] | EC50 Ago (M) (cCaSR [1]): -; EC50 PAM (M) (cCaSR [2]): - |
| - | - | O=C([O-])[O-].O=C([O-])[O-].O=C([O-])[O-].[Ce+3].[Ce+3] [Cerium(III) carbonate] |  |
| - | - | COC(=O)[C@@H](N)CCCNC(N)=N[N+](=O)[O-] [NG-Nitro-L-Arginine Methyl Ester] |  |
| - | - | CC(C)(Cc1ccc2ccccc2c1)NC[C@@H](O)COc1cccc(Cl)c1C#N [NPS 2143, reference compound] |  |
| - | - | NCC(=O)O [Glycine] |  |
|  |  | CC(C)[C@H](N)P(=O)(O)O [(1R)-(+)-(1-Amino-2-methylpropyl)phosphonic acid] | EC50 Ago (M) (cCaSR [1]): -; EC50 PAM (M) (cCaSR [2]): - |
| - |  | CC(NCC1CCCN(C)C1c1cccs1)c1cc(Cl)c(N)c(Cl)c1 (centres unmarked) [Enamine Screening - Z1532507755] | EC50 (cCaSR [2]; [5]): 8.68 µM |
| - | - | COC(=O)[C@@H](N)CCCN=C(N)N [L-Arginine methyl ester] |  |
| - | - | C1N2CN3CN1CN(C2)C3 [Hexamethylenetetramine] |  |
|  | - | NCCCNCCCCNCCCN [Spermine] | agonist activity on cCaSR (in words) (cCaSR [1]): agonists |
|  |  | NCCNCCNCCN [Triethylenetetramine] | EC50 Ago (M) (cCaSR [1]): - |
|  | - | NC[C@@H]1O[C@H](O[C@H]2[C@@H](O)[C@H](O[C@@H]3[C@@H](O)[C@H](N)C[C@H](N)[C@H]3O[C@H]3O[C@H](CN)[C@@H](O)[C@H](O)[C@H]3N)O[C@@H]2CO)[C@H](N)[C@@H](O)[C@@H]1O [Neomycin, reference compound] |  |
|  |  | O.O.[Ba+2].[Cl-].[Cl-] [Ba^2+, Barium chloride dihydrate] | EC50 PAM (M) (cCaSR [2]): - |
|  | - | C[C@@H](O)C(=O)SC[C@H](NC(=O)CC[C@H](N)C(=O)O)C(=O)NCC(=O)O [S-Lactoylglutathione] |  |
|  |  | [Ba+2].[Cl-].[Cl-] [Ba^2+, Barium chloride dihydrate] | EC50 (cCaSR [1]): 1170 µM; EC50 (cCaSR [1]; read-out: EC50 Ago): 1170 µM; EC50 (cCaSR [1]; read-out: cCaSR activity): 1000 to 10000 µM |
| - |  | Cc1ccc(C(C)(O)c2nc3ccccc3s2)c(C)c1 (centres unmarked) [AC-265347, reference compound] |  |
|  | - | N[C@]1(C(=O)O)C[C@H](C(=O)O)C1 [1s,3s-1-aminocyclobutane-1,3-dicarboxylic acid] |  |
|  | - | NC(=O)CC[C@H](NC(=O)[C@H](CCC(=O)O)NC(=O)CC[C@H](N)C(=O)O)C(=O)O [γ-Glu-Glu-Gln] |  |

| Compound | EC50 Ago (M) (cCaSR [1]; [3]) | EC50 PAM (M) (cCaSR [2]; [4]) | other results |
| --- | --- | --- | --- |
| N[C@@H](C[Se][Se]C[C@H](N)C(=O)O)C(=O)O.O [L-Selenocystine monohydrate] | - | - |  |
| Poly-L-lysine |  | - | EC50 (cCaSR [1]; [6]): > 10000 µM |
| OC[C@H]1OC(O)[C@H](O)[C@@H](O)[C@@H]1O (stereo partly drawn) [D-( +)-Glucose, D-(+)-Glucose] | - | - |  |
| CNC(=N)NCCC[C@H](N)C(=O)O [NG-methyl L Arginine] | - | - |  |
| N[C@@H](CCP(=O)(O)O)C(=O)O [L-2-Amino-4-phosphonobutyric acid] | - | - |  |
| NC(N)=NCCC[C@@H](N)C(=O)O [D-Arginine] | - | - |  |
| N[C@@H](CCCCNC(=O)CC[C@H](N)C(=O)O)C(=O)O [γ-Glu-Lys] | - | - |  |
| N[C@H](CCC(=O)O)C(=O)O [D-Glutamic acid] | - | - |  |

From publication PMC8131363 (Scientific Reports, 2021)
